pIC50: −log10 of the molar value.
Molecular target: T1, hERG potassium channel (Homo sapiens, UniProt Q12809)
T1 construct: expressed in transfected cells
Assay: hERG potassium channel inhibition experiment (automatic patch clamp, CHO-hERG cells)
Type: cell-based
Details: Qpatch, highest tested concentration 40 μM, read-out: IC50, blocking effect on the hERG potassium current
Procedure: Fully automatic patch clamps were used to test the blocking effect of the compounds of the present invention on the hERG potassium current on a stable cell line transfected with hERG potassium channels.
CHO-hERG cells were cultured in 175 cm^2 culture flask. When the cell grew to 60-80% confluence, the culture medium was removed. The cells were washed with 7 ml PBS (Phosphate Buffered Saline) once, and then 3 ml Detachin was added to digest.
After the digestion was completed, 7 ml culture medium was added to neutralize. The mixture was centrifuged, and after the supernatant was removed, 5 ml culture medium was added to resuspend to ensure the cell density was 2×10^6-5×10^6/ml.
Single-cell high-impedance sealing and whole-cell mode formation were all automatically completed by using the Qpatch instrument. After the recording mode was obtained, the cell was clamped at −80 millivolts. Before +40 millivolt depolarization stimulation for 5 seconds was given, −50 millivolt pre-voltage for 50 millisecond was first given, then repolarized to −50 millivolt for 5 seconds, and then returned to −80 millivolt. This voltage stimulus was applied every 15 seconds. After recording for 2 min, extracellular fluid was given, and recording was conducted for 5 min, and then the dosing process started. The compound concentration started from the lowest test concentration, and each test concentration was given for 2.5 min. […] At least 3 cells per concentration (n≥3) were tested.
20 mM compound mother liquor was diluted with extracellular fluid. 5 μL of 20 mM compound mother liquor was taken and added into 2495 μL extracellular fluid, so that it was diluted 500 times to 40 μM, and was then serially diluted 3 times in an extracellular fluid containing 0.2% DMSO to obtain the final concentration to be tested.
The highest tested concentration was 40 μM, and the concentrations were in order as follows: 40, 13.33, 4.44, 1.48, 0.49, 0.16 μM, totally 6 concentrations.
Experimental data were analyzed by XLFit software.

T1 sequence (Q12809 whole entry): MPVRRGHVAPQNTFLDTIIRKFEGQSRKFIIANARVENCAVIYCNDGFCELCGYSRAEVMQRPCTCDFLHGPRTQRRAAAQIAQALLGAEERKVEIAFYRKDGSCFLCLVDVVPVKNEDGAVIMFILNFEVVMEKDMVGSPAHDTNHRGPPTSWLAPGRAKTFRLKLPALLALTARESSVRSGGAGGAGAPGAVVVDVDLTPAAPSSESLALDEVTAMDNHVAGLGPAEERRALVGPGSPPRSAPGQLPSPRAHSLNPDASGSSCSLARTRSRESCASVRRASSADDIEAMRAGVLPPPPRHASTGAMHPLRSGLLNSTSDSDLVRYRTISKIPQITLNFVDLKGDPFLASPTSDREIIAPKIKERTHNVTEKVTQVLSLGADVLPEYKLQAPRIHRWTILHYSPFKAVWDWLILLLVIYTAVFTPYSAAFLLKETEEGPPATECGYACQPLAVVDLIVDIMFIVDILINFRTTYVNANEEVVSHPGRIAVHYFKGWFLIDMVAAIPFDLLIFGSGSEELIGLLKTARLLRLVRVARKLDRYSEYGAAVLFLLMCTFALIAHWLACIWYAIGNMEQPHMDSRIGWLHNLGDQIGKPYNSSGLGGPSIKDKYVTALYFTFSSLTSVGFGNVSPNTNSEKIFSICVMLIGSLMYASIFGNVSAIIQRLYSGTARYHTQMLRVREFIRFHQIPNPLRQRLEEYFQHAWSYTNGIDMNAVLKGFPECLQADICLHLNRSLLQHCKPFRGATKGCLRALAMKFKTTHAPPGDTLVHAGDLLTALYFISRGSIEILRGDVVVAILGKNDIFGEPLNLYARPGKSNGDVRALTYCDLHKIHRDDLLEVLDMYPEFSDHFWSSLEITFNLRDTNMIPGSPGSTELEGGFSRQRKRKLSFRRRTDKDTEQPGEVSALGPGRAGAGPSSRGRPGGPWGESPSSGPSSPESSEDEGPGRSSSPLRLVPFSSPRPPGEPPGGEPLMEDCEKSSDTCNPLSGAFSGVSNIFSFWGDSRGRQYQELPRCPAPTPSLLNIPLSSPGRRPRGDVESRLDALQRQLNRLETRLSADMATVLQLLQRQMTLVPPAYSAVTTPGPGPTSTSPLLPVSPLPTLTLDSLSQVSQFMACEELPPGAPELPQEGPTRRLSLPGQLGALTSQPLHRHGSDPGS

Structure (SMILES): Cl.N[C@]1(c2ccc(C(F)(F)F)cc2)CCC[C@H](O)C1=O [Compound 51, (2S,6S)-2-amino-6-hydroxy-2-(4-(trifluoromethyl)phenyl)cyclohexane-1-one hydrochloride]
- pIC50: < 4.40
